Assay results published in US6670446B1, “N1 modified glycopeptides” (Eli Lilly and Company, priority 1998, dated 2003).

Columns and labels:
Type in all cases: cell-based
[1] = test system: Staphylococcus aureus 489; assay: MIC, standard broth micro-dilution assay, SA 489
Description: (§1) The antibacterial efficacy of the present compounds is illustrated by Table III. The minimal inhibitory concentrations (MICs) were determined using a standard broth micro-dilution assay.

[2] = test system: Enterococcus faecalis 276; assay: MIC, standard broth micro-dilution assay, EF 276
Description: as §1

[3] = test system: Staphylococcus aureus 447; assay: MIC, standard broth micro-dilution assay, SA 447
Description: as §1

[4] = test system: Enterococcus faecium 180-1; assay: MIC, standard broth micro-dilution assay, EF 180-1
Description: as §1

[5] = test system: Resistant Enterococcus faecium and faecalis; assay: MIC, standard broth micro-dilution assay, Resistant; settings: geometric mean of 4-6 isolates
Description: as §1

Escherichia coli EC14 = assay: MIC, standard broth micro-dilution assay, EC 14
Description: as §1

[6] = test system: Staphylococcus aureus X400; assay: MIC, standard broth micro-dilution assay, SA X400
Description: as §1

Enterococcus faecium 180 = assay: MIC, standard broth micro-dilution assay, EF 180
Description: as §1

[7] = test system: Staphylococcus aureus SA1199A; assay: MIC, standard broth micro-dilution assay, SA 1199A
Description: as §1

[8] = test system: Staphylococcus aureus 446; assay: MIC, standard broth micro-dilution assay, SA 446
Description: as §1

[9] = test system: Enterococcus faecalis 2041; assay: MIC, standard broth micro-dilution assay, EF 2041
Description: as §1

[10] = test system: Sensitive Enterococcus faecium and faecalis; assay: MIC, standard broth micro-dilution assay, Sensitive; settings: geometric mean of 4-6 isolates
Description: as §1

[11] = test system: Enterococcus gallinarum 245; assay: MIC, standard broth micro-dilution assay, EG 245
Description: as §1

[12] = test system: Staphylococcus epidermidis 270; assay: MIC, standard broth micro-dilution assay, SE 270
Description: as §1

[13] = test system: Staphylococcus aureus 491; assay: MIC, standard broth micro-dilution assay, SA 491
Description: as §1

[14] = test system: Staphylococcus haemolyticus 105; assay: MIC, standard broth micro-dilution assay, SH 105
Description: as §1

[15] = test system: Haemophilus influenzae RD; assay: MIC, standard broth micro-dilution assay, HFRD
Description: as §1

[16] = test system: Staphylococcus aureus X778; assay: MIC, standard broth micro-dilution assay, SA X778
Description: as §1

[17] = test system: Staphylococcus haemolyticus 415; assay: MIC, standard broth micro-dilution assay, SH 415
Description: as §1

[18] = test system: Staphylococcus aureus S13E
Description: as §1

[19] = test system: Staphylococcus aureus SA1199; assay: MIC, standard broth micro-dilution assay, SA 1199
Description: as §1

In the case of `CC1OC(OC2c3ccc(c(Cl)c3)Oc3cc4cc(c3OC3OC(CO)C(O)C(O)C3OC3CC(C)(NCc5ccc(-c6ccccc6)cc5)C(O)C(C)O3)Oc3ccc(cc3Cl)C(O)C(NC(=O)C3CCCN3)C(=O)NC(CC(N)=O)C(=O)NC4C(=O)NC3C(=O)NC2C(=O)NC(C(=O)O)c2cc(O)cc(O)c2-c2cc3ccc2O)CC(C)(N)C1O` [Example 32, N^1-L-proline derivative of N^DISACC-(p-phenylbenzyl)desleucylA82846B], the “minimal inhibitory concentration (MIC), SA 489” value [1] was 1, the “minimal inhibitory concentration (MIC), EF 276” value [2] was 2 and the “minimal inhibitory concentration (MIC), SA 447” value [3] was 1. For the same compound, the “minimal inhibitory concentration (MIC), EF 180-1” value [4] was 0.125, the “minimal inhibitory concentration (MIC), Resistant” value [5] was 16 and the “minimal inhibitory concentration (MIC), EC 14” value (Escherichia coli EC14) was greater than 64. The “minimal inhibitory concentration (MIC), SA X400” value [6] was 2, the “minimal inhibitory concentration (MIC), EF 180” value (Enterococcus faecium 180) was 2 and the “minimal inhibitory concentration (MIC), SA 1199A” value [7] was “≦.06”. The “minimal inhibitory concentration (MIC), SA 446” value [8] was 1, the “minimal inhibitory concentration (MIC), EF 2041” value [9] was 1 and the “minimal inhibitory concentration (MIC), Sensitive” value [10] was 0.76. For the same compound, the “minimal inhibitory concentration (MIC), EG 245” value [11] was 0.5, the “minimal inhibitory concentration (MIC), SE 270” value [12] was 0.125 and the “minimal inhibitory concentration (MIC), SA 491” value [13] was 0.125. For the same compound, the “minimal inhibitory concentration (MIC), SH 105” value [14] was 0.125, the “minimal inhibitory concentration (MIC), HFRD” value [15] was greater than 64 and the “minimal inhibitory concentration (MIC), SA X778” value [16] was 0.5. The “minimal inhibitory concentration (MIC), SH 415” value [17] was 0.5, the “minimal inhibitory concentration (MIC), SA S13E” value [18] was 0.25 and the “minimal inhibitory concentration (MIC), SA 1199” value [19] was 0.25.

`CC1OC(OC2c3ccc(c(Cl)c3)Oc3cc4cc(c3OC3OC(CO)C(O)C(O)C3OC3CC(C)(NCc5ccc(-c6ccccc6)cc5)C(O)C(C)O3)Oc3ccc(cc3Cl)C(O)C(NC(=O)C(N)Cc3ccc(Cl)cc3)C(=O)NC(CC(N)=O)C(=O)NC4C(=O)NC3C(=O)NC2C(=O)NC(C(=O)O)c2cc(O)cc(O)c2-c2cc3ccc2O)CC(C)(N)C1O` [Example 33, N^1-[L-3-(p-chlorophenyl)alanine] derivative of N^DISACC-(p-phenylbenzyl)desleucylA82846B] was tested, and the “minimal inhibitory concentration (MIC), SA 489” value [1] was 2, the “minimal inhibitory concentration (MIC), EF 276” value [2] was 4 and the “minimal inhibitory concentration (MIC), SA 447” value [3] was 1. For the same compound, the “minimal inhibitory concentration (MIC), EF 180-1” value [4] was 0.5, the “minimal inhibitory concentration (MIC), Resistant” value [5] was 27 and the “minimal inhibitory concentration (MIC), EC 14” value (Escherichia coli EC14) was greater than 64. The “minimal inhibitory concentration (MIC), SA X400” value [6] was 1, the “minimal inhibitory concentration (MIC), EF 180” value (Enterococcus faecium 180) was 4 and the “minimal inhibitory concentration (MIC), SA 1199A” value [7] was 0.25. The “minimal inhibitory concentration (MIC), SA 446” value [8] was 1, the “minimal inhibitory concentration (MIC), EF 2041” value [9] was 2 and the “minimal inhibitory concentration (MIC), Sensitive” value [10] was 2.6. The “minimal inhibitory concentration (MIC), EG 245” value [11] was 1, the “minimal inhibitory concentration (MIC), SE 270” value [12] was 0.25 and the “minimal inhibitory concentration (MIC), SA 491” value [13] was 0.5. For the same compound, the “minimal inhibitory concentration (MIC), SH 105” value [14] was 0.5, the “minimal inhibitory concentration (MIC), HFRD” value [15] was greater than 64 and the “minimal inhibitory concentration (MIC), SA X778” value [16] was 1. The “minimal inhibitory concentration (MIC), SH 415” value [17] was 0.5, the “minimal inhibitory concentration (MIC), SA S13E” value [18] was 1 and the “minimal inhibitory concentration (MIC), SA 1199” value [19] was 0.5.
